# Test results reported in patent US6423541B1, “Process for in vitro selection of high methol producing genotypes” (Council of Scientific&Industrial Reaearch, priority 2000, dated 2002).
# How the values were obtained:
# Format in all cases: cell-based
# [1] = test system: regenerated shoots of Mentha arvensis variety Gomti; assay: Survival of in vitro raised shoots on menthol containing MS basal medium
# Excerpt: (§1) The plant varieties analysed were Himalaya, Shivalik, Gomti, MAS-1, Kosi, Kalka of Mentha arvensis L. (2n=96). The suckers of these plant varieties were obtained from CIMAP's national gene bank for medicinal and aromatic plants for planting. The explant materials were collected from the field grown plants and surface sterilized by washing sequentially with 2% detergent, distilled water containing a few drops of Savlon (Johnson and Johnson, India), 0.1% acidified mercuric chloride and autoclaved distilled water before inoculation. About 1 cm long internodal pieces were inoculated in the MS medium (Murasighe and Skoog, 1962) containing vitamins, 100 mg l^−1 myo-inositol 3% wv^−1 sucrose, 1.5% wv^−1 agar (Difco), 0.5 .μg ml^−1 of an auxin, (NAA, 1-napthalene acetic acid) and 5 μg ml^−1 of a cytokinin (BAP, benzyl aminopurine) (Shasany et al, 1998). The cultures were grown at 25±2° C. and 400 to 600 lux light intensity with 16 h photoperiod. The regenerated shoots were separated 12 weeks after the explant inoculation for rooting and/or testing menthol tolerance.
# The regenerated shoots (3-4 cm long, containing the apical bud and 2-3 nodes) separated after 12 weeks, were inoculated into MS basal medium with or without menthol (0 to 100 μg ml^−1). Concentration of menthol in each treatment was stepped up by 10 μg in a sequential manner. On each kind of these media, 5 independently regenerated shoots were inoculated per flask; 4 flasks were inoculated per replication and each treatment was replicated 5 times, making the number of flasks to 20 and number of explants to 100 for each concentration of menthol. The experiment was conducted in the completely randomized design (CRD) fashion. Cultures were incubated and maintained at 25±2° C. and 400-600 lux light intensity with 16-hour photoperiod. The wilting response and lethality in explants was recorded every 24 hours over a period of one week.
# [2] = test system: regenerated shoots of Mentha arvensis varieties; assay: whole plant or invertebrate; details: 168 h, read-out: mortality of shoots
# Excerpt: as §1
# The regenerated shoots (3-4 cm long, containing the apical bud and 2-3 nodes) separated after 12 weeks, were inoculated into MS basal medium with or without menthol (0 to 100 μg ml^−1). […] The wilting response and lethality in explants was recorded every 24 hours over a period of one week.
# [3] = test system: callus mediated regenerants of Mentha arvensis cv. Himalaya; assay: Survival of callus mediated regenerants from internodal explants at different concentrations of menthol; details: for Survival after 24 hours Number / Survival after 7 days Number: 20 shoots tested per replication
# Excerpt: The Applicants selected the improved plant variety cv. Himalaya (U.S. Pat. PP 10,935: Kumar et al 1999) of Mentha arvensis L. as the base material for further improvement and selection. This variety is a hybrid between variety Gomti and Kalka and bears the high proliferating habit of Gomti and high menthol content, disease tolerant characters of Kalka. The explant material was collected from the field grown plants and surface sterilized by washing sequentially with 2% detergent, distilled water containing a few drops of Savlon (Johnson and Johnson, India), 0.1% acidified mercurie chloride and autoclaved distilled water before inoculation. About 1 cm long internode pieces were inoculated in the MS medium (Murashige and Skoog 1962) containing 0.2 μg ml^−1 concentrations of the auxin 2,4 dichlorophenoxyacetic acid (2,4-D) and 7 μg ml^−1 of the cytokinin 6-(γγ′- dimethylallyl amino) purine (2iP or 2aP) (Khanuja et al. 1998). This procedure has been highly efficient in generating variation in cultures of mints with greater frequencies. The cultures were grown at 25±2° C. and 400 to 600 lux light intensity with 16-h photoperiod. The regenerated shoots were separated 12 weeks latter the explant inoculation for rooting and/or screening.
# The regenerated shoots (3-4 cm long, containing the apical bud and 2-3 nodes) separated from the 2,4D/2iP medium, were inoculated into MS basal medium containing vitamins, 100 mg l^−1 myo-inositol, 3% wv^−1 sucrose, 1.5% wv^−1 agar (Difco), with or without menthol (0 to 100 μg ml^−1, concentration stepped up by 10 μg serially in each treatment). On each kind of these media, 5 independent regenerated shoots were inoculated per flask; 4 flasks were inoculated per replication and each treatment was replicated 5 times, making the number of flasks to 20 and number of explants to 100 for each concentration of menthol. Like the earlier experiment this experiment was also conducted in the completely randomised design (CRD) fashion. Cultures were incubated and maintained at 25±2° C. and 400-600 lux light intensity with 16 hour photoperiod. The nature of initial responses in explants was recorded every 24 hours over a period of one week.
structure (smiles),measurement,setting,value
CC1CCC(C(C)C)C(O)C1 (centres unmarked) [menthol],lethality,"[1]; 100-ppm menthol, twenty-four hours after incubation",99%
same,Survival after 7 days Number,[1]; menthol 10 μg ml^−1,20.0 ± 0.00
same,Survival after 24 hours Number,"[1]; menthol 10 μg ml^−1, 20 shoots tested per replication",20.0 ± 0.00
same,Survival after 7 days Number,[1]; menthol 20 μg ml^−1,20.0 ± 0.00
same,Survival after 24 hours Number,"[1]; menthol 20 μg ml^−1, 20 shoots tested per replication",20.0 ± 0.00
same,Survival after 7 days Number,[1]; menthol 30 μg ml^−1,20.0 ± 0.00
same,Survival after 24 hours Number,"[1]; menthol 30 μg ml^−1, 20 shoots tested per replication",20.0 ± 0.00
same,Survival after 7 days Number,[1]; menthol 40 μg ml^−1,16.8 ± 0.48
same,Survival after 24 hours Number,"[1]; menthol 40 μg ml^−1, 20 shoots tested per replication",20.0 ± 0.00
same,Survival after 7 days Number,[1]; menthol 50 μg ml^−1,7.0 ± 0.41
same,Survival after 24 hours Number,"[1]; menthol 50 μg ml^−1, 20 shoots tested per replication",16.0 ± 0.90
same,Survival after 7 days Number,[1]; menthol 60 μg ml^−1,4.0 ± 0.57
same,Survival after 24 hours Number,"[1]; menthol 60 μg ml^−1, 20 shoots tested per replication",12.0 ± 0.71
same,Survival after 7 days Number,[1]; menthol 70 μg ml^−1,0.4 ± 0.32
same,Survival after 24 hours Number,"[1]; menthol 70 μg ml^−1, 20 shoots tested per replication",6.0 ± 0.32
same,Survival after 7 days Number,[1]; menthol 80 μg ml^−1,0.0 ± 0.00
same,Survival after 24 hours Number,"[1]; menthol 80 μg ml^−1, 20 shoots tested per replication",1.6 ± 0.31
same,Survival after 7 days Number,[1]; menthol 90 μg ml^−1,0.0 ± 0.00
same,Survival after 24 hours Number,"[1]; menthol 90 μg ml^−1, 20 shoots tested per replication",1.0 ± 0.41
same,Survival after 7 days Number,[1]; menthol 100 μg ml^−1,0.0 ± 0.00
same,Survival after 24 hours Number,"[1]; menthol 100 μg ml^−1, 20 shoots tested per replication",0.2 ± 0.26
same,mortality at 80 ppm,[2],100%
same,shoot survival,"[3]; at and above 80 μg ml^−1 menthol, after 7th day",No shoots were able to survive
same,Survival after 24 hours %,[3]; menthol 10 μg ml^−1,100%
same,Survival after 7 days %,[3]; menthol 10 μg ml^−1,100%
same,Survival after 24 hours Number,[3]; menthol 10 μg ml^−1,20.0 ± 0.00
same,Survival after 7 days Number,[3]; menthol 10 μg ml^−1,20.0 ± 0.00
same,Survival after 24 hours %,[3]; menthol 20 μg ml^−1,100%
same,Survival after 7 days %,[3]; menthol 20 μg ml^−1,100%
same,Survival after 24 hours Number,[3]; menthol 20 μg ml^−1,20.0 ± 0.00
same,Survival after 7 days Number,[3]; menthol 20 μg ml^−1,20.0 ± 0.00
same,Survival after 24 hours %,[3]; menthol 30 μg ml^−1,100%
same,Survival after 7 days %,[3]; menthol 30 μg ml^−1,100%
same,Survival after 24 hours Number,[3]; menthol 30 μg ml^−1,20.0 ± 0.00
same,Survival after 7 days Number,[3]; menthol 30 μg ml^−1,20.0 ± 0.00
same,Survival after 24 hours %,[3]; menthol 40 μg ml^−1,100%
same,Survival after 7 days %,[3]; menthol 40 μg ml^−1,88%
same,Survival after 24 hours Number,[3]; menthol 40 μg ml^−1,20.0 ± 0.00
same,Survival after 7 days Number,[3]; menthol 40 μg ml^−1,17.6 ± 0.66
same,Survival after 24 hours %,[3]; menthol 50 μg ml^−1,85%
same,Survival after 7 days %,[3]; menthol 50 μg ml^−1,45%
same,Survival after 24 hours Number,[3]; menthol 50 μg ml^−1,17.0 ± 0.91
same,Survival after 7 days Number,[3]; menthol 50 μg ml^−1,9.0 ± 0.41
same,Survival after 24 hours %,[3]; menthol 60 μg ml^−1,70%
same,Survival after 7 days %,[3]; menthol 60 μg ml^−1,10%
same,Survival after 24 hours Number,[3]; menthol 60 μg ml^−1,14.0 ± 0.58
same,Survival after 7 days Number,[3]; menthol 60 μg ml^−1,2.0 ± 0.41
same,Survival after 24 hours %,[3]; menthol 70 μg ml^−1,45%
same,Survival after 7 days %,[3]; menthol 70 μg ml^−1,1%
same,Survival after 24 hours Number,[3]; menthol 70 μg ml^−1,9.0 ± 0.91
same,Survival after 7 days Number,[3]; menthol 70 μg ml^−1,0.2 ± 0.26
same,shoot survival,"[3]; menthol 70 μg ml^−1, within 24 hours of inoculation",about 45%
same,death of shoots,"[3]; menthol 70 μg ml^−1, within 7 days after inoculation",~99%
same,Survival after 24 hours %,[3]; menthol 80 μg ml^−1,20%
same,Survival after 7 days %,[3]; menthol 80 μg ml^−1,0%
same,Survival after 24 hours Number,[3]; menthol 80 μg ml^−1,4.0 ± 0.58
same,Survival after 7 days Number,[3]; menthol 80 μg ml^−1,0.0 ± 0.00
same,Survival after 24 hours %,[3]; menthol 90 μg ml^−1,10%
same,Survival after 7 days %,[3]; menthol 90 μg ml^−1,0%
same,Survival after 24 hours Number,[3]; menthol 90 μg ml^−1,2.0 ± 0.40
same,Survival after 7 days Number,[3]; menthol 90 μg ml^−1,0.0 ± 0.00
same,Survival after 24 hours %,[3]; menthol 100 μg ml^−1,0%
same,Survival after 7 days %,[3]; menthol 100 μg ml^−1,0%
same,Survival after 24 hours Number,[3]; menthol 100 μg ml^−1,0.0 ± 0.00
same,Survival after 7 days Number,[3]; menthol 100 μg ml^−1,0.0 ± 0.00
